Values quoted from earlier work as cited in patent US6773610B2, “Method for controlling biofilm” (priority 1999, dated 2004).

System: bacteria and viruses
Conditions: versus chlorine

Structure (SMILES): O=[O+][O-] [Ozone]
- Speed of deactivation of bacteria and viruses relative to chlorine: 3125 times faster
